The values below come from patent US10172911B2, “Methods of modulating erythropoiesis with arginine vasopressin receptor 1B molecules” (The United States of America, as represented by the …, priority 2013, dated 2019).

“Also recorded” adds a separate entry of the source.

The test system of one experiment is mice. The experiment is described as follows: Sublethal irradiation anemia model. In kind it is in vivo, mouse. As for the experimental part:
Mice were irradiated with 4.5 Grays, and 24 hours later mice were implanted with ALZET micro-osmotic pumps as described above to deliver AVP or vehicle. Mice were treated with Trimethoprim and Sulfamethoxazole (Bactrim, Septra) for 7 days before irradiation and continued the treatment for 4 weeks after irradiation. Using a pediatric formulation, the stock concentration contains 40 mg/5 ml Trimethoprim and 200 mg/5 ml Sulfa, so that the treated drinking water will deliver 0.13 mg/ml trimethoprim and 0.67 mg/ml sulfa to the mice.

A further experiment relates to β-catenin. The experiment is described as follows: β-catenin immunostaining of AVP-stimulated human CD34+ cells. In kind it is cell-based. The settings on record: 10^−10 M, 24 hours. The source says: FIGS. 3A-3D show studies of signaling pathways. FIG. 3A provides results from CFU assays showing E-CFU and GM-CFU numbers/1000 plated cells. […] Error bars represent means±SD * p<0.05, ** p<0.01, unpaired t-test. […] The cells were then fixed with 4% paraformaldehyde and washed before immunostaining. Following permeabilization with Triton-X 100 a primary antibody to β-catenin was applied followed by a fluorescent secondary antibody. The β-catenin translocated to the nucleus at the 10^−10 AVP concentration confirming the activation of the Wnt pathway. Scale: 10 μm. […] Using Q-PCR to detect changes in genes that reflect Wnt pathway activation, increases in CCND1, MYC and LEF1 in response to AVP stimulation were observed.
FIGS. 8A-8C show AVP stimulation results in the nuclear translocation of β-catenin affecting the Wnt pathway. […] The cells were then fixed with 4% paraformaldehyde and washed before immunostaining. Following permeabilization with Triton-X 100, a primary antibody to β-catenin was applied followed by a fluorescent secondary antibody. The β-catenin translocated to the nucleus at the 10^−10 M AVP concentration confirming the activation of the Wnt pathway. Scale: 10 μm. FIG. 8B CFU assays showing E-CFU and GM-CFU numbers/1000 plated cells. […] Error bars represent means±SD * p<0.05, ** p<0.01, unpaired t-test.

In experiment [1] the test system is mouse bone marrow LSK cells. The experiment is described as follows: BrdU cell proliferation assay, sorted mouse bone marrow LSK cells. In kind it is cell-based. The conditions noted are these: 10^−8M-10^−14M, 2 days culture. As for the experimental part:
Sorted mouse bone marrow LSK cells (10000 cells/well) were plated in a 96 well plate in Stemspan serum free expansion medium ([…] Technologies, Vancouver, Canada) with Pen/Strep, and the following hematopoietic factors: 100 ng/ml TPO, 50 ng/ml FLT3L, 50 ng/ml IL-3 and SCF 100 ng/ml (Peprotech, Rocky Hill, N.J.). Cells were treated with […] (Sigma-Aldrich, St. Louis, Mo.). When using human CD34^+ cells (5000 cells/well), human SCF, TPO, FLT3L and G-CSF (Peprotech, each at 50-100 ng/ml) were added to the Stemspan medium. Cells were treated with 10^−8M-10^−14M AVP. After 24 hours, BrdU at a 1:1000 concentration was added to the cultures and incorporation of BrdU was measured using the Cell Proliferation ELISA BrdU kit (Roche, Mannheim, Germany) after another 24 hours of incubation.

Another experiment relates to splenectomized mice. The experiment is described as follows: Hemorrhage in splenectomized mice. The experiment is classed as in vivo, mouse. The settings on record: splenectomized mice vs controls. How it is done: Three to four month old mice were splenectomized and recovered for a month. AVP was administered at the time of bleeding and blood was sampled 2 and 4 days later for hematocrit and reticulocyte measurements.

Consider `NC(=O)CC[C@@H]1NC(=O)[C@H](Cc2ccccc2)NC(=O)[C@H](Cc2ccc(O)cc2)NC(=O)[C@@H](N)CSSC[C@@H](C(=O)N2CCC[C@H]2C(=O)N[C@@H](CCCN=C(N)N)C(=O)NCC(N)=O)NC(=O)[C@H](CC(N)=O)NC1=O` [AVP, [Arg8]-Vasopressin], for which the “outcome measures (hematocrit, corrected reticulocytes)” value in the experiment on mice (sublethal irradiation, day 2 and day 4) is “significantly improved outcome measures on day 2 and to some extent on day 4”. In the experiment with mice (sublethally irradiated mice), the “hematocrit and reticulocyte numbers” value was “rapid elevations in hematocrit and reticulocyte numbers”. Besides, in the experiment with β-catenin, the “nuclear translocation of β-catenin” value was “drives nuclear translocation of β-catenin; also recorded: had this effect”. The “proliferation (BrdU incorporation) of mouse LSK cells” value in experiment [1] is on record as “induced proliferation; also recorded: stimulated LSK proliferation; also recorded: significantly increased the proliferation”. In the experiment with splenectomized mice, the AVP-induced hematocrit response entry is recorded as “no different from controls”.
